Measurements as given in patent US20090098050A1, “CALCIUM BINDING PEPTIDES” (THE REGENTS OF THE UNVERSITY OF CALIFORNIA, priority 2005, published 2009).
No end group written: not given here.

Key:
[1] = Tissue specific binding of DSS peptides and variants in human teeth (CLSM); settings: 12.5 μM labeled peptide; for Tissue binding pattern in healthy tooth section: nondemineralized teeth
Experimental: FIG. 8: Fluorescence micrographs showing tissue specificity in the binding of DSS peptides and variants. Adult human teeth were exposed to 12.5 μM 5(6)-carboxyfluorescein-labeled peptide without demineralization, washed extensively, and imaged by CLSM. For each section, multiple scans were collected and assembled in an automated mode to generate panels of images representing an area of 13×13 mm, sufficient in most cases to encompass the whole section. The peptides used for each section are labeled beneath each panel, and within each panel the tooth is oriented with the root toward the top of the image and the crown toward the bottom. Tissue layers are labeled as follows: RTD=Root Tip Dentin; CPD=Circumpulpal Dentin; MD=Mantle Dentin; P=Pulp Cavity Wall; DEJ=Dentin-Enamel Junction; E=Enamel; BE=Basal Enamel; CE=Cortical Enamel; CL=Carious Lesion; PB=Periodontal Bone.
In order to investigate the tissue specificity of DSS peptide binding to tooth tissue, sections of human teeth were exposed to DSS peptides and variants, then imaged by CLSM as described in Example 2. The peptides utilized for these experiments were 8DSS, 8ASS, 8DAA, 8NAA, 4DSS, 4ESS, 4NSS, 4DTT, 4ETT, 4NTT, and 6DSS. Sagittal sections of human teeth extracted during normal clinical practice were polished and then incubated for ten minutes in a solution of the appropriate 5(6) carboxyfluorescein-labeled peptide (12.5 μM) containing 10 mM NaCl and 50 mM HEPES, pH 7.0. Control samples were prepared without peptide. Samples were washed extensively after treatment and imaged by CLSM using blue laser illumination (λ=488 nm) and a FITC emission filter, with identical camera and microscope settings for each sample. For each section, multiple scans were collected and assembled in an automated mode to generate panels of images representing an area of 13×13 mm, sufficient in most cases to encompass the whole section. […] Significant binding was also seen to the edges of the pulp cavity.

[2] = Preferential binding to carious lesions in teeth (CLSM); design: species or system human; settings: labeled peptide, settings optimized per sample
Experimental: FIG. 9: Fluorescence micrographs showing specific binding of DSS peptides and variants to carious lesions in teeth. Adult human teeth were exposed to 12.5 uM 5(6)-carboxyfluorescein-labeled peptide without demineralization, washed extensively, and imaged by CLSM. Microscope and camera settings were optimized separately for each sample. […] White traces on the right side of each panel identify the position of the tooth surface, while arrows indicate the position of the stained lesion.
Sections of human teeth containing obvious carious lesions, which consist of demineralized enamel, were polished and exposed to 5(6)-carboxyfluorescein-labeled DSS peptides and variants using the protocol described in Example 2. The sections were washed extensively and imaged by CLSM using blue laser illumination (λ=488 nm) and a FITC emission filter, with microscope and camera settings adjusted for each sample to optimize the signal detected from each peptide. The images were examined to identify the relative levels of peptide binding in healthy versus carious tissue. […] Given their ability to remineralize at sites of enamel degradation (Example 6), they can also be used to initiate remineralization at sites of enamel degradation such as caries or injury sites without causing inappropriate nucleation on healthy tissue surfaces.

[3] = Binding of fluorescein-labeled peptides to hydroxyapatite nanocrystals (Langmuir isotherm); settings: Langmuir fit; for KA, affinity constant of the peptide for the hydroxyapatite surface: fluorescein-labeled peptide 0-100 μM, 0.3 mg hydroxyapatite, ten minutes
Experimental: FIG. 1: Binding affinities of DSS and DSS variant peptides for hydroxyapatite and tooth surfaces. A-C. Fluorescein-labeled peptides at concentrations ranging from 0-100 μM were incubated with 0.3 mg of hydroxyapatite nanocrystals (specific surface area=100 m^2/g) for ten minutes, followed by removal of the hydroxyapatite by centrifugation. The amount of peptide in the mixture before and after hydroxyapatite removal was determined by Abs480. Isotherms were plotted and fit to the Langmuir equation to extract values for KA, a constant reflecting the affinity of the peptide for the hydroxyapatite surface. D. Sagitally sectioned human teeth were incubated with 12.5 μM 5(6) carboxyfluorescein-labeled 6DSS peptide for ten minutes, followed by rinsing. Peptide binding to tooth surfaces was visualized by Confocal Laser Scanning Microscopy (CLSM) using blue laser illumination (λA=488 nm) and a FITC emission filter. Left side, light colored region: dentin. Right side, dark colored region: enamel.
Four DSS peptides containing two (2DSS, SEQ ID NO:12), four (4DSS, SEQ ID NO:13), six (6DSS, SEQ ID NO:14), or eight(8DSS, SEQ ID NO:15) Asp-Ser-Ser (DSS) repeats were generated. Peptides were labeled with fluorescein, and various concentrations of the labeled peptides (0-100 μM) were mixed with a fixed amount (0.3 mg) of hydroxyapatite nanocrystals having a specific surface area of 100 m^2/g (Berkeley Advanced Biomaterials, Inc.). Samples were incubated for ten minutes, followed by removal of the hydroxyapatite by centrifugation. The amount of peptide in the mixture was measured both before and after hydroxyapatite removal by spectroscopic absorbance at 480 nm (the peak absorbance of the fluorescein label). The amount of peptide bound was calculated by comparing the ratio of the final (Af) and initial (Ai) absorbances to the initial concentration (P0) [Pbound=[…]]. Plots were generated illustrating the amount of peptide bound per m^2 of hydroxyapatite surface area versus concentration of unbound peptide at equilibrium. The resulting isotherms were fit to the Langmuir isotherm (x/m=(KANMaxCeq)/(1+KACeq)) (Calis 1995), which describes the binding activity of a molecule in terms of a combination of binding affinity (KA) and avidity (NMax). KA represents the affinity constant of the peptide for the hydroxyapatite surface. In this equation, x/m represents the molar amount of peptide bound per unit of hydroxyapatite surface area, NMax represents the maximum surface concentration (mol/m^2), and Ceq represents the molar concentration of unbound peptide at equilibrium. The Langmuir isotherm describes the binding of molecules to surfaces with the conditions that 1) all binding sites have the same affinity for the peptide, and 2) the peptide will form a monolayer on the surface but cannot accumulate to higher levels. The excellent fit of the Langmuir isotherm to the experimental data validates these conditions, and these affinity constants were used for comparisons between peptides.

Substance | Tissue binding pattern in healthy tooth section [1] | Specificity of binding to carious lesions versus surrounding healthy enamel [2] | Strength of staining of carious lesions [2] | NMax, maximum surface concentration (available binding sites on HA surface) [3] | KA, affinity constant of the peptide for the hydroxyapatite surface [3] | Binding to fragment of periodontal bone attached to the sample [1] | Binding to carious lesion present in the sample [1]
4DSS: peptide containing four Asp-Ser-Ser (DSS) repeats, SEQ ID NO:13 (DSSDSSDSSDSS; calcium binding peptide containing four DSS repeats, 4DSS, (DSS)-4) | bound primarily to the mantle dentin | highly specific binding to carious lesions | exceptionally strong staining of carious lesions | 5.8×10^−8 mol/m^2 | 94,000 M^−1 | – | –
4ESS: four repeat peptide containing a longer sidechain at the first position, SEQ. ID NO. 16 (ESSESSESSESS; variant DSS four repeat peptide containing longer sidechain at first position, 4ESS) | – | highly specific binding to carious lesions | exceptionally strong staining of carious lesions | – | 81,000 M^−1 | – | –
2DSS: peptide containing two Asp-Ser-Ser (DSS) repeats, SEQ ID NO:12 (DSSDSS; calcium binding peptide containing two DSS repeats, 2DSS) | – | – | – | – | 57,000 M^−1 | – | –
4NAA: label printed only in b88, not defined; probably a misprint (NAANAANAANAA; variant DSS four repeat peptide lacking hydroxyl group at seond and third positions, 4NAA) | – | – | exceptionally strong staining of carious lesions | – | – | – | –
8ASS: eight repeat peptide lacking a charged group at the first position, SEQ. ID NO. 21 (ASSASSASSASSASSASSASSASS; variant DSS eight repeat peptide lacking negatively charged group at first position, 8ASS) | – | highly specific binding to carious lesions | exceptionally strong staining of carious lesions | – | 170,000 M^−1 | – | –
4NTT: four repeat peptide containing more sterically hindered hydroxyl groups at second and third positions, SEQ. ID NO. 18 (NTTNTTNTTNTT; variant DSS four repeat peptide containing more sterically hindered hydroxyl groups at second and third positions, 4NTT) | very low levels of binding to the healthy tooth tissue | – | – | – | 18,000 M^−1 | strong binding | –
4DTT: four repeat peptide containing more sterically hindered hydroxyl groups at second and third positions, SEQ. ID NO. 17 (DTTDTTDTTDTT; variant DSS four repeat peptide containing more sterically hindered hydroxyl groups at second and third positions, 4DTT) | binding patterns similar to those of 4DSS and 4ESS, though at sharply reduced levels | – | – | – | 161,000 M^−1 | – | –
8DAA: eight repeat peptide lacking hydroxyl groups at the second and third positions, SEQ. ID NO. 22 (DAADAADAADAADAADAADAADAA; variant DSS eight repeat peptide lacking hydroxyl group at seond and third positions, 8DAA) | primary binding to the root tip dentin and cortical enamel, as well as to the dentin-enamel junction and the pulp cavity wall | highly specific binding to carious lesions | exceptionally strong staining of carious lesions | – | 300,000 M^−1 | – | –
4DSPS: partially phosphorylated four repeat DSS peptide, SEQ ID NO:25 (DSSDSSDSSDSS; also: partially phosphorylated, sites not given here) | – | – | – | 1.2×10^−7 mol/m^2 | 83,000 M^−1 | – | –
4NSS: four repeat peptide lacking a charged group at the first position, SEQ. ID NO. 20 (NSSNSSNSSNSS; variant DSS four repeat peptide lacking negatively charged group at first position, 4NSS) | – | highly specific binding to carious lesions | – | – | 41,000 M^−1 | – | –
4ETT: four repeat peptide containing more sterically hindered hydroxyl groups at second and third positions, SEQ. ID NO. 19 (ETTETTETTETT; variant DSS four repeat peptide containing more sterically hindered hydroxyl groups at second and third positions, 4ETT) | binding patterns similar to those of 4DSS and 4ESS, though at sharply reduced levels | highly specific binding to carious lesions | – | – | 61,000 M^−1 | – | –
8NAA: eight repeat peptide lacking hydroxyl groups at the second and third positions, SEQ. ID NO. 23 (NAANAANAANAANAANAANAANAA; variant DSS eight repeat peptide lacking hydroxyl group at seond and third positions, 8NAA) | very little binding to any healthy tissue | highly specific binding to carious lesions | – | – | 20,000 M^−1 | – | did bind somewhat to a carious lesion
